Measured values reported in patent publication US20080152765A1, “Coated Granular Formulations” (priority 2005, published 2008).
Values joined by “and” are separate entries in the source; they are usually repeats but may differ in a detail not shown here. Equal entries are not always repeated. Each block holds one compound with its values, some of them ahead of it.

Tests used:
Format in all cases: physicochemical
[1] = Stability of the protected NADH product relative to the starting material, 5 days at 53° C.
[2] = Hygroscopicity and photosensitivity of starting material NADH, exposure to light, RH 75%, 20° C.; settings: for weight (increase in weight relative to time zero): T = 0 2.00 g
Procedure: The hygroscopicity and photosensitivity of the starting material NADH (s.m.) was determined as increase in weight, relative to time zero, the relative content being given in p.a.: […]

[3] = Hygroscopicity of starting material SAMe, exposure at 75% RH and 20° C.; settings: for weight (increase in weight relative to time zero): T = 0 2.00 g
Procedure: The hygroscopicity of the starting material SAMe (s.m.) was determined as increase in weight, relative to the time zero, the relative content being given in p.a.: […]

[4] = Increase of hygroscopicity in % by weight, SAMe, 75% RH 40° C.
[5] = Stability of the protected SAMe product relative to the starting material, 5 days at 53° C.
[6] = 1 day exposure to light, RH 75%, 20° C.
[7] = 2 days exposure to light, RH 75%, 20° C.
[8] = 3 days exposure to light, RH 75%, 20° C.
[9] = 4 days exposure to light, RH 75%, 20° C.
[10] = 5 days at 53° C., listed as s.m.

- % NAD+ content ([1]; 5 days at 53° C.): 2.3%
- % NADH content ([1]; 5 days at 53° C.): 98.4%
- % water (KF) ([1]; 5 days at 53° C.): 1.5%
- % NAD+ content ([1]; T = 0): 0.5%
- % NADH content ([1]; T = 0): 100.1%
- % water (KF) ([1]; T = 0): 1.3%
- NAD+ impurity [2, 6]: 1.21%
- NADH content [2, 6]: 97.9%
- Water (KF) [2, 6]: 1.82%
- weight (increase in weight relative to time zero) [2, 6]: 2.20 g
- NAD+ impurity [2, 7]: 1.55%
- NADH content [2, 7]: 97.3%
- Water (KF) [2, 7]: 1.91%
- weight (increase in weight relative to time zero) [2, 7]: 2.40 g
- NAD+ impurity [2, 8]: 2.89%
- NADH content [2, 8]: 96.0%
- Water (KF) [2, 8]: 2.44%
- weight (increase in weight relative to time zero) [2, 8]: 2.50 g
- NAD+ impurity [2, 9]: 3.45%
- NADH content [2, 9]: 95.5%
- Water (KF) [2, 9]: 2.86%
- weight (increase in weight relative to time zero) [2, 9]: 2.80 g
- NAD+ impurity ([2]; T = 0): 0.55%
- NADH content ([2]; T = 0): 98.4%
- Water (KF) ([2]; T = 0): 1.2%
SMILES: NC(=O)C1=CN([C@@H]2O[C@H](COP(=O)(O)OP(=O)(O)OC[C@H]3O[C@@H](n4cnc5c(N)ncnc54)[C@H](O)[C@@H]3O)[C@@H](O)[C@H]2O)C=CC1 [NADH]

- hygroscopicity and stability, in words ([3]; 75% RH and 20° C., 4 days): high hygroscopicity and high instability
- % MTA ([3]; 1 day at 75% RH and 20° C.): 1.5%
- % adenine + adenosine ([3]; 1 day at 75% RH and 20° C.): 1.3%
- % ionic SAMe ([3]; 1 day at 75% RH and 20° C.): 51.1%
- % water (KF) ([3]; 1 day at 75% RH and 20° C.): 2.1%
- weight (increase in weight relative to time zero) ([3]; 1 day at 75% RH and 20° C.): 2.40 g
- % MTA ([3]; 2 days at 75% RH and 20° C.): 1.9%
- % adenine + adenosine ([3]; 2 days at 75% RH and 20° C.): 2.4%
- % ionic SAMe ([3]; 2 days at 75% RH and 20° C.): 50.3%
- % water (KF) ([3]; 2 days at 75% RH and 20° C.): 2.9%
- weight (increase in weight relative to time zero) ([3]; 2 days at 75% RH and 20° C.): 2.90 g
- % MTA ([3]; 3 days at 75% RH and 20° C.): 2.4%
- % adenine + adenosine ([3]; 3 days at 75% RH and 20° C.): 2.9%
- % ionic SAMe ([3]; 3 days at 75% RH and 20° C.): 47.3%
- % water (KF) ([3]; 3 days at 75% RH and 20° C.): 3.4%
- weight (increase in weight relative to time zero) ([3]; 3 days at 75% RH and 20° C.): 3.50 g
- % MTA ([3]; 4 days at 75% RH and 20° C.): 3.0%
- % adenine + adenosine ([3]; 4 days at 75% RH and 20° C.): 3.2%
- % ionic SAMe ([3]; 4 days at 75% RH and 20° C.): 45.1%
- % water (KF) ([3]; 4 days at 75% RH and 20° C.): 3.8%
- weight (increase in weight relative to time zero) ([3]; 4 days at 75% RH and 20° C.): 4.50 g
- % MTA ([3]; T(0)): T(0) = 0.6%
- % adenine + adenosine ([3]; T(0)): T(0) = 0.4%
- % ionic SAMe ([3]; T(0)): T(0) = 52.1%
- % water (KF) ([3]; T(0)): T(0) = 1.5%
- Increase of hygroscopicity in % by weight ([4]; 1 day at 75% RH and 40° C.): 50%
- Increase of hygroscopicity in % by weight ([4]; T = 0): 0.00 % by weight
- % water (KF) ([5]; 5 days at 53° C.): 1.5%
- % Ionic SAMe content [5, 10]: 48.5% and 47.3%
- % MTA [5, 10]: 3.45% and 3.87%
- % adenine + adenosine [5, 10]: 3.35% and 3.54%
- % Ionic SAMe content ([5]; T = 0, listed as s.m): 52.4%
- % MTA ([5]; T = 0, listed as s.m): 0.3%
- % adenine + adenosine ([5]; T = 0, listed as s.m): 0.6%
- % water (KF) ([5]; T = 0, listed as s.m): 1.6%
- % Ionic SAMe content ([5]; T = 0, listed as s.m.): 52.1%
- % MTA ([5]; T = 0, listed as s.m.): 0.6%
- % adenine + adenosine ([5]; T = 0, listed as s.m.): 0.4%
- % water (KF) ([5]; T = 0, listed as s.m.): 1.5%
SMILES: C[S+](CC[C@H](N)C(=O)O)C[C@H]1O[C@@H](n2cnc3c(N)ncnc32)[C@H](O)[C@@H]1O (stereo partly shown) [SAMe, S-adenosylmethionine]
